The values that follow come from patent publication US8461348B2, “Heterocyclic derivative and use thereof” (Takeda Pharmaceutical Company Limited, priority 2008, dated 2013).

The structures appear in SMILES notation.

The assay has as its target T1, Purified sGC (Homo sapiens, UniProt Q02153).
T1 sequence (Q02153 1-619): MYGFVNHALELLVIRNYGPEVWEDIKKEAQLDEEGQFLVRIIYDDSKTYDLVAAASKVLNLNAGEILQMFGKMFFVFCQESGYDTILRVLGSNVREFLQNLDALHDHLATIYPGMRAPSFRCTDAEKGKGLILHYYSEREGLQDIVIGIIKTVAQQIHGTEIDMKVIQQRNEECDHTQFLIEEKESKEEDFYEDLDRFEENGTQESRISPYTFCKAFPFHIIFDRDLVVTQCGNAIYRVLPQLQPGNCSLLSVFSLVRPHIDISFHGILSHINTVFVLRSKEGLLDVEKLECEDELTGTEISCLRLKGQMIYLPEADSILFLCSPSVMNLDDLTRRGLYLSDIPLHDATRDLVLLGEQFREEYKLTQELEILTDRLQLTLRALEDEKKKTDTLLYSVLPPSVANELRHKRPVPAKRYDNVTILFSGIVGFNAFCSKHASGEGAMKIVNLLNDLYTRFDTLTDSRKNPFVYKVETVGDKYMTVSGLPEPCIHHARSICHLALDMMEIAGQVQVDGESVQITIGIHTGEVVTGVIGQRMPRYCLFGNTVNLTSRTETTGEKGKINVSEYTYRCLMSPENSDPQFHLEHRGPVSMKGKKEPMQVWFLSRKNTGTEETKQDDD
T1 sequence (Q02108 1-690 partner): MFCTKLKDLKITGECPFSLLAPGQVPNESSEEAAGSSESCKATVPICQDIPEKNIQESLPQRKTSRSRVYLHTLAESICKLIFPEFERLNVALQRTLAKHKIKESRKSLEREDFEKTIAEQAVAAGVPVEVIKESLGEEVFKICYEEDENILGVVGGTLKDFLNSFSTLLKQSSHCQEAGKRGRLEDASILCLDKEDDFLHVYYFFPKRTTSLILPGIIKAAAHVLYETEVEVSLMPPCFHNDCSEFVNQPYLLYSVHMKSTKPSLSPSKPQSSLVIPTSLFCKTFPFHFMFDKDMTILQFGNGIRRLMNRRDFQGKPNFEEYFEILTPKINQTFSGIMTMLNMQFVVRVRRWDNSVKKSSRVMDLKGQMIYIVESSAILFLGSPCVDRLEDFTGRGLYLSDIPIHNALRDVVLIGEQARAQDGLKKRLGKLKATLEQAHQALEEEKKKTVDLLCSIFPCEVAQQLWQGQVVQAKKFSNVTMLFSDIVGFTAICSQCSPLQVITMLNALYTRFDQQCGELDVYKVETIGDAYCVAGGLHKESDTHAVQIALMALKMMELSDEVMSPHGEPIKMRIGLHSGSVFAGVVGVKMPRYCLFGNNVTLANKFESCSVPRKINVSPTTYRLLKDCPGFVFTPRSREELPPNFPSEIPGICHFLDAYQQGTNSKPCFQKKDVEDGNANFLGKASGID
Briefly: Measurement of sGC activation in vitro (cGMP production by purified sGC). The assay is classed as biochemical. As to conditions: 20 min; test compound diluted to 30 μM, 10 μL/well plus equal volumes of sGC and GTP; 20 min at room temperature; cGMP without compound (1% DMSO) = 100%; read-out: cGMP amount (%) in experiment system. Here is the method: To evaluate sGC activation of each compound, the following in vitro tests were performed.
A test compound was diluted with a reaction buffer (50 mM HEPES, 5 mM MgCl2, 2 mM DTT, 0.5 mM IBMX (isobutylmethylxanthine), 0.01% BSA) to 30 μM (3% DMSO), and dispensed to a 384 well plate (manufactured by REMP) at 10 μL/well. Purified sGC was diluted with the reaction buffer to 240 ng/mL and added to the plate at 10 μL/well. Then, 120 μM GTP prepared with the reaction buffer was added to the reaction plate at 10 μL/well to initiate an enzyme reaction. After stirring at room temperature for 20 min to allow reaction, 125 mM Na2CO3 was added at 15 μL/well to quench the reaction. Thereafter, 125 mM Zn Acetate (zinc acetate) was added at 15 μL/well to allow precipitation of unreacted GTP. Then, the amount of the resulting cGMP contained in the supernatant was quantified using a CatchPoint cGMP assay kit (molecular devices). The method followed the protocol attached to the assay kit. For detection, Super Signal ELISA Femto (Thermo) was used, and the amount of luminescence was measured with ARVO (Perkinelmer). The sGC activity with addition of the compound was calculated using the amount of cGMP produced without addition of the compound (in the presence of 1% DMSO) as 100%.

Regarding `Cc1c(C(=O)O)cnn1-c1nc(-c2ccc(Cl)c(Cl)c2)cs1` [Ref. Ex. 5, 1-[4-(3,4-dichlorophenyl)-1,3-thiazol-2-yl]-5-methyl-1H-pyrazole-4-carboxylic acid], the activity at 10 µM was over 1000%.

As for `O=C(O)c1cnn(-c2nc(COc3ccc(Cl)c(Cl)c3)cs2)c1C(F)(F)F` [Ref. Ex. 22, 1-[4-[(3,4-dichlorophenoxy)methyl]-1,3-thiazol-2-yl]-5-(trifluoromethyl)-1H-pyrazole-4-carboxylic acid], the activity at 10 µM was 766%.

Take `O=C(O)c1cnn(-c2nc(-c3cccc(OC(F)(F)F)c3)cs2)c1C(F)(F)F` [Ref. Ex. 10, 1-{4-[3-(trifluoromethoxy)phenyl]-1,3-thiazol-2-yl}-5-(trifluoromethyl)-1H-pyrazole-4-carboxylic acid]: the activity at 10 µM was over 1000%.

For `O=C(O)c1cnn(-c2nc(CCc3cccc(C(F)(F)F)c3)cs2)c1C(F)(F)F` [Ref. Ex. 24, 5-(trifluoromethyl)-1-(4-{2-[3-(trifluoromethyl)phenyl]ethyl}-1,3-thiazol-2-yl)-1H-pyrazole-4-carboxylic acid], the activity at 10 µM was over 1000%.

In the case of `CS(=O)(=O)NC(=O)c1cnn(-c2nc(-c3ccc(Cl)c(Cl)c3)cs2)c1C(F)(F)F` [Ref. Ex. 19, 1-[4-(3,4-dichlorophenyl)-1,3-thiazol-2-yl]-N-(methylsulfonyl)-5-(trifluoromethyl)-1H-pyrazole-4-carboxamide], the activity at 10 µM is over 1000%.

Regarding `O=C(O)c1cnn(-c2nc(-c3ccc(Cl)c(Cl)c3)cs2)c1C1CC1` [Ref. Ex. 4, 5-cyclopropyl-1-[4-(3,4-dichlorophenyl)-1,3-thiazol-2-yl]-1H-pyrazole-4-carboxylic acid], the activity at 10 µM is over 1000%.

With `FC(F)(F)c1c(-c2nn[nH]n2)cnn1-c1nc(-c2ccc(Cl)c(Cl)c2)cs1` [Ref. Ex. 18, 5-{1-[4-(3,4-dichlorophenyl)-1,3-thiazol-2-yl]-5-(trifluoromethyl)-1H-pyrazol-4-yl}-2H-tetrazole], the activity at 10 µM was over 1000%.

`Cc1c(C(=O)O)cnn1Cc1nc(-c2cccc(C(F)(F)F)c2)cs1` [Example 13, 5-methyl-1-({4-[3-(trifluoromethyl)phenyl]-1,3-thiazol-2-yl}methyl)-1H-pyrazole-4-carboxylic acid]: the activity at 10 µM was over 1000%.

With `O=C(O)c1cnn(-c2nc(-c3ccc(Cl)c(Cl)c3)cs2)c1C(F)(F)F` [Ref. Ex. 1, 1-[4-(3,4-dichlorophenyl)-1,3-thiazol-2-yl]-5-(trifluoromethyl)-1H-pyrazole-4-carboxylic acid], the activity at 10 µM is over 1000%.

Turning to `Cc1cc(C(=O)O)nn1Cc1nc(-c2ccc(Cl)c(Cl)c2)cs1` [Example 6, 1-{[4-(3,4-dichlorophenyl)-1,3-thiazol-2-yl]methyl}-5-methyl-1H-pyrazole-3-carboxylic acid], the activity at 10 µM was found to be 420%.

Regarding `O=C(O)c1ccc(Cc2nc(-c3cccc(C(F)(F)F)c3F)cs2)cc1` [Example 186, 4-({4-[2-fluoro-3-(trifluoromethyl)phenyl]-1,3-thiazol-2-yl}methyl)benzoic acid], the activity at 10 µM is over 1000%.

As for `O=C(O)c1cnn(-c2nc(Cc3cccc(C(F)(F)F)c3)cs2)c1C(F)(F)F` [Ref. Ex. 25, 5-(trifluoromethyl)-1-{4-[3-(trifluoromethyl)benzyl]-1,3-thiazol-2-yl}-1H-pyrazole-4-carboxylic acid], the activity at 10 µM was over 1000%.

`FC(F)(F)c1cccc(-c2csc(Cn3cc(-c4nn[nH]n4)cn3)n2)c1` [Example 18, 5-[1-({4-[3-(trifluoromethyl)phenyl]-1,3-thiazol-2-yl}methyl)-1H-pyrazol-4-yl]-2H-tetrazole]: the activity at 10 µM was 503%.

As to `O=C(O)c1cnn(Cc2ncc(-c3cccc(C(F)(F)F)c3)s2)c1` [Example 23, 1-({5-[3-(trifluoromethyl)phenyl]-1,3-thiazol-2-yl}methyl)-1H-pyrazole-4-carboxylic acid], the activity at 10 µM came to 996%.
